Laboratory results: US11447498B2, “Fused tetracyclic compounds and uses thereof in medicine” (SUNSHINE LAKE PHARMA CO., LTD., priority 2018, dated 2022)

Tests used:
HBsAg secretion = assay: Inhibition experiment on HBsAg secretion (HepG 2,2,15 cells, ELISA); assay type: cell-based; conditions: Hepatitis B virus, HepG2.2.15, read-out: HBsAg IC50
Text: (§1) The chromosomal integration of HepG2,2,15 cells (SELLS, PNAS, 1987 and SELLS, JV, 1988) has a complete HBV genome and stably expresses viral RNA and viral proteins. HepG2,2,15 cells are capable of secreting mature hepatitis B virus particles and HBsAg into the culture medium. Virus particles DNA and HBsAg secreted by HepG 2,2,15 cells can be quantified by qPCR and ELISA, and the effects of compounds on viral replication and HBsAg secretion can be detected.
(§2) HepG 2,2,15 cells were inoculated with 8,000 per cell to 96-well cell culture plates in duplicate, and were cultured for 3 days until the cells grew to full-hole. Cells were treated with 4-fold serial dilutions of compounds for 10 days, and were given once every other day. The final concentration of DMSO in all pores was 0.5% and DMSO was used as a drug-free control. The supernatant was collected for quantitative detection of HBsAg on day 11.
The level of HBsAg secreted by the cells after treatment of the compound was detected by ELISA method, and the method used a hepatitis B surface antigen diagnostic kit (Shanghai Kehua Biotech Co., Ltd. S10910113). 25 μL of the supernatant to be assayed (PBS was diluted to 75 μL) was added to per well in the ELISA plate, and the kit positive control and negative control were set. The ELIS A plate was blocked with a cover paper and incubated at 37° C. for 60 minutes. The ELISA plate was taken out, and the cover paper was teared off, and 50 μL of enzyme conjugate was added to each well. The ELISA plate was oscillated on the shaker for 10 seconds, blocked with a cover paper and incubated at 37° C. for 30 minutes. The ELISA plate was taken out, the cover paper was teared off, and the ELISA plate was washed 5 times: each time the liquid in the hole was discarded, and the washing liquid was filled into the holes, left to stand for 60 seconds, dried, and the liquid residue was patted to dry on the absorbent paper. A freshly prepared mixture of Developer A and Developer B was added to all wells immediately after washing: 100 μL per well. The ELISA plate was oscillated on the shaker for 10 seconds, blocked with a cover paper and incubated at 37° C. for 30 minutes. 50 μL of stop solution was added to all wells. Absorbance was read on the Envision plate reader at a wavelength of 450 nm.
Concentration-HBsAg OD450 was processed using Graphpad Prism 5 software, and IC50 of compounds inhibiting against HBsAg secretion was calculated by four-parameter nonlinear regression model.

HBV DNA replication = assay: Inhibition experiment on HBV virus replication (HepG 2,2,15 cells, supernatant HBV DNA by qPCR); assay type: cell-based; conditions: Hepatitis B virus, HepG2.2.15, 10 days treatment, supernatant HBV DNA on day 11
Text: as §1
as §2, with “HBV DNA” for “HBsAg”
Viral genomic DNA was detected by qPCR method, and HBV primers were as follows: […]
The SYBR Premix Ex Taq D-Takara DRR081S kit was used, and 1 μL of cell culture supernatant was used as a template. A standard curve was made using a plasmid containing the HBV genome, and the viral copy number was calculated using the standard curve. Concentration-virus copy number was processed using Graphpad Prism 5 software, and IC50 of compounds inhibiting virus replication was calculated by four-parameter nonlinear regression model.

| SMILES | IC50 (HBsAg secretion) | IC50 (HBV DNA replication) |
| --- | --- | --- |
| CC(C)C1Cc2cc(-c3ccco3)c3c(c2-c2cc(=O)c(C(=O)O)cn21)CCO3 (stereo not drawn) [Example 1, 4-(Furan-2-yl)-7-isopropyl-11-oxo-2,6,7,11-tetrahydro-1H-furo[2,3-h]pyrido[2,1-a]isoquinoline-10-carboxylic Acid] | 4.21 nM | 2.36 nM |
| CC(C)[C@@H]1Cc2cc(OCCC3CC3)c3c(c2-c2cc(=O)c(C(=O)O)cn21)CCO3 [Example 3A, (S)-4-(2-Cyclopropylethoxy)-7-isopropyl-11-oxo-2,6,7,11-tetrahydro-1H-furo [2,3-h]pyrido[2,1-a]isoquinoline-10-carboxylic Acid] | 0.76 nM | – |
| CC(C)C1Cc2cc(OCCOC3CC3)c3c(c2-c2cc(=O)c(C(=O)O)cn21)CCO3 (stereo not drawn) [Example 4, 4-(2-Cyclopropoxyethoxy)-7-isopropyl-11-oxo-2,6,7,11-tetrahydro-1H-furo [2,3-h]pyrido[2,1-a]isoquinoline-10-carboxylic Acid] | – | 3.84 nM |
| CC(C)C1Cc2cc(OCC3CCOCC3)c3c(c2-c2cc(=O)c(C(=O)O)cn21)CCO3 (stereo not drawn) [Example 5, 7-Isopropyl-11-oxo-4-((tetrahydro-2H-pyran-4-yl)methoxy)-2,6,7,11-tetrahydro-1H-furo[2,3-h]pyrido[2,1-a]isoquinoline-10-carboxylic Acid] | 2.35 nM | 3.4 nM |
| CC(C)C1Cc2cc(OCCc3ccccc3)c3c(c2-c2cc(=O)c(C(=O)O)cn21)CCO3 (stereo not drawn) [Example 6, 7-Isopropyl-11-oxo-4-phenylethoxy-2,6,7,11-tetrahydro-1H-furo[2,3-h]pyrido [2,1-a]isoquinoline-10-carboxylic Acid] | 1.92 nM | 0.86 nM |
| CC(C)C1Cc2cc(OCCC(F)(F)F)c3c(c2-c2cc(=O)c(C(=O)O)cn21)CCO3 (stereo not drawn) [Example 7, 7-Isopropyl-11-oxo-4-(3,3,3-trifluoropropoxy)-2,6,7,11-tetrahydro-1H-furo [2,3-h]pyrido[2,1-a]isoquinoline-10-carboxylic Acid] | – | 1.87 nM |
| CC(C)C1Cc2cc(-c3nccs3)c3c(c2-c2cc(=O)c(C(=O)O)cn21)CCO3 (stereo not drawn) [Example 8, 7-isopropyl-11-oxo-4-(thiazol-2-yl)-2,6,7,11-tetrahydro-1H-furo[2,3-h]pyrido [2,1-a]isoquinoline-10-carboxylic Acid] | 1.63 nM | 0.52 nM |
| CC(C)C1Cc2cc(-c3cnn(C(F)F)c3)c3c(c2-c2cc(=O)c(C(=O)O)cn21)CCO3 (stereo not drawn) [Example 10, 4-(l (Difluoromethyl)-1H-pyrazol-4-yl)-7-isopropyl-11-oxo-2,6,7,11-tetrahydro-1H-furo[2,3-h]pyrido[2,1-a]isoquinoline-10-carboxylic Acid] | 2.34 nM | 0.98 nM |
| CC(C)[C@@H]1Cc2cc(-c3cnn(C(F)F)c3)c3c(c2-c2cc(=O)c(C(=O)O)cn21)CCO3 [Example 10A, 4-(1-(Difluoromethyl)-1H-pyrazol-4-yl)-7-isopropyl-11-oxo-2,6,7,11-tetrahydro-1H-furo[2,3-h]pyrido[2,1-a]isoquinoline-10-carboxylic Acid] | 0.54 nM | – |
| CC(C)C1Cc2cc(-c3cccs3)c3c(c2-c2cc(=O)c(C(=O)O)cn21)CCO3 (stereo not drawn) [Example 11, 7-Isopropyl-11-oxo-4-(thiophen-2-yl)-2,6,7,11-tetrahydro-1H-furo[2,3-h]pyrido[2,1-a]isoquinoline-10-carboxylic Acid] | 0.92 nM | 0.78 nM |
| COCCCOc1cc2c(c3c1OCC3)-c1cc(=O)c(C(=O)O)cn1N1C2CCC1(C)C (stereo not drawn) [Example 12, 5-(3-Methoxypropoxy)-1,1-dimethyl-10-oxo-2,3,3a,7,8,10-hexahydro-1H-furo [3,2-f]pyrido[1,2-c]pyrrolo[2,1-a]phthalazine-11-carboxylic Acid] | 0.81 nM | < 0.24 nM |
| CC(C)n1cc(-c2cc3c(c4c2OCC4)-c2cc(=O)c(C(=O)O)cn2N2C3CCC2(C)C)cn1 (stereo not drawn) [Example 14, 5-(1-Isopropyl-1H-pyrazol-4-yl)-1,1-dimethyl-10-oxo-2,3,3a,7,8,10-hexahydro-1H-furo[3,2-f]pyrido[1,2-c]pyrrolo[2,1-a]phthalazine-11-carboxylic Acid] | 0.38 nM | < 0.24 nM |
| COCCCOc1cc2c(c3c1OCC3)-c1cc(=O)c(C(=O)O)cn1N(C(C)C)C2 [Example 16, 7-Isopropyl-4-(3-methoxypropoxy)-11-oxo-2,6,7,11-tetrahydro-1H-furo[2,3-h]pyrido[2,1-a]phthalazine-10-carboxylic Acid] | – | 2.49 nM |
| CC(C)CCOc1cc2c(c3c1OCC3)-c1cc(=O)c(C(=O)O)cn1C(C(C)C)C2 (stereo not drawn) [Example 21, 4-(Isopentyloxy)-7-isopropyl-11-oxo-2,6,7,11-tetrahydro-1H-furo[2,3-h]pyrido [2,1-a]isoquinoline-10-carboxylic Acid] | 1.55 nM | – |
| CC(C)C1Cc2cc(OCC3CCCC3)c3c(c2-c2cc(=O)c(C(=O)O)cn21)CCO3 (stereo not drawn) [Example 22, 4-(Cyclopentylmethoxy)-7-isopropyl-11-oxo-2,6,7,11-tetrahydro-1H-furo[2,3-h]pyrido[2,1-a]isoquinoline-10-carboxylic Acid] | – | 2.26 nM |
| CC(C)C1Cc2cc(OCC3CC3)c3c(c2-c2cc(=O)c(C(=O)O)cn21)CCO3 (stereo not drawn) [Example 23, 4-(Cyclopropylmethoxy)-7-isopropyl-11-oxo-2,6,7,11-tetrahydro-11-furo [2,3-h]pyrido[2,1-a]isoquinoline-10-carboxylic Acid] | 1.14 nM | 3.36 nM |
| CC(C)C1Cc2cc(-c3ccc(-c4ccccc4)cc3)c3c(c2-c2cc(=O)c(C(=O)O)cn21)CCO3 (stereo not drawn) [Example 25, 4-([1,1′-Biphenyl]-4-yl)-7-isopropyl-11-oxo-2,6,7,11-tetrahydro-1H-furo[2,3-h]pyrido[2,1-a]isoquinoline-10-carboxylic Acid] | 1.4 nM | 0.72 nM |
| COc1ccc(-c2cc3c(c4c2OCC4)-c2cc(=O)c(C(=O)O)cn2C(C(C)C)C3)cc1 (stereo not drawn) [Example 26, 7-Isopropyl-4-(4-methoxyphenyl)-11-oxo-2,6,7,11-tetrahydro-1H-furo[2,3-h]pyrido[2,1-a]isoquinoline-10-carboxylic Acid] | 1.33 nM | 1.09 nM |
| COc1cccc(-c2cc3c(c4c2OCC4)-c2cc(=O)c(C(=O)O)cn2C(C(C)C)C3)c1 (stereo not drawn) [Example 27, 7-Isopropyl-4-(3-methoxyphenyl)-11-oxo-2,6,7,11-tetrahydro-1H-furo[2,3-h]pyrido[2,1-a]isoquinoline-10-carboxylic Acid] | 4.65 nM | 2.54 nM |
| CC(C)C1Cc2cc(-c3ccncc3)c3c(c2-c2cc(=O)c(C(=O)O)cn21)CCO3 (stereo not drawn) [Example 29, 7-Isopropyl-11-oxo-4-(pyridine-4-yl)-2,6,7,11-tetrahydro-1H-furo[2,3-h]pyrido [2,1-a]isoquinoline-10-carboxylic Acid] | 2.64 nM | 0.97 nM |
| CC(C)C1Cc2cc(-c3cncnc3)c3c(c2-c2cc(=O)c(C(=O)O)cn21)CCO3 (stereo not drawn) [Example 30, 7-Isopropyl-11-oxo-4-(pyrimidin-5-yl)-2,6,7,11-tetrahydro-1H-furo[2,3-h]pyrido[2,1-a]isoquinoline-10-carboxylic Acid] | 5.3 nM | 1.95 nM |
| O=C(O)c1cn2c(cc1=O)-c1c(cc(OCCC3CC3)c3c1CCO3)CN2c1nccs1 [Example 47, 4-(2-Cyclopropylethoxy)-11-oxo-7-(thiazol-2-yl)-2,6,7,11-tetrahydro-1H-furo [2,3-h]pyrido[2,1-a]phthalazine-10-carboxylic Acid] | – | 3.31 nM |
